Measured values taken from ChEMBL document CHEMBL4831492, “Design and synthesis of 2-(2-isonicotinoylhydrazineylidene)propanamides as InhA inhibitors with high antitubercular activity” (Eur J Med Chem, 2021).
≈ marks a conversion by molar mass, not a printed value.

What was measured:
Type in all cases: functional
[1] = tested on: Mycobacterium tuberculosis; assay: Antimycobacterial activity against multi drug-resistant Mycobacterium tuberculosis praha 1 assessed as minimal inhibitory concentration required for complete inhibition of mycobacterial growth incubated for 14 days; conditions: praha 1, 336 h, time 14 day
[2] = tested on: Mycobacterium tuberculosis; assay: Antimycobacterial activity against multi drug-resistant Mycobacterium tuberculosis praha 1 assessed as minimal inhibitory concentration required for complete inhibition of mycobacterial growth incubated for 21 days; conditions: praha 1, 504 h, time 21 day
[3] = tested on: Mycobacterium tuberculosis; assay: Antimycobacterial activity against multi drug-resistant Mycobacterium tuberculosis praha 4 assessed as minimal inhibitory concentration required for complete inhibition of mycobacterial growth incubated for 14 days; conditions: praha 4, 336 h, time 14 day
[4] = tested on: Mycobacterium tuberculosis; assay: Antimycobacterial activity against multi drug-resistant Mycobacterium tuberculosis praha 4 assessed as minimal inhibitory concentration required for complete inhibition of mycobacterial growth incubated for 21 days; conditions: praha 4, 504 h, time 21 day
[5] = tested on: Mycobacterium tuberculosis; assay: Antimycobacterial activity against multi drug-resistant Mycobacterium tuberculosis praha 131 assessed as minimal inhibitory concentration required for complete inhibition of mycobacterial growth incubated for 14 days; conditions: praha 131, 336 h, time 14 day
[6] = tested on: Mycobacterium tuberculosis; assay: Antimycobacterial activity against multi drug-resistant Mycobacterium tuberculosis praha 131 assessed as minimal inhibitory concentration required for complete inhibition of mycobacterial growth incubated for 21 days; conditions: praha 131, 504 h, time 21 day
[7] = tested on: Mycobacterium tuberculosis; assay: Antimycobacterial activity against multi drug-resistant Mycobacterium tuberculosis 234/2005 assessed as minimal inhibitory concentration required for complete inhibition of mycobacterial growth incubated for 14 days; conditions: 234/2005, 336 h, time 14 day
[8] = tested on: Mycobacterium tuberculosis; assay: Antimycobacterial activity against multi drug-resistant Mycobacterium tuberculosis 234/2005 assessed as minimal inhibitory concentration required for complete inhibition of mycobacterial growth incubated for 21 days; conditions: 234/2005, 504 h, time 21 day
[9] = tested on: Mycobacterium tuberculosis; assay: Antimycobacterial activity against multi drug-resistant Mycobacterium tuberculosis 9449/2007 assessed as minimal inhibitory concentration required for complete inhibition of mycobacterial growth incubated for 14 days; conditions: 9449/2007, 336 h, time 14 day
[10] = tested on: Mycobacterium tuberculosis; assay: Antimycobacterial activity against multi drug-resistant Mycobacterium tuberculosis 9449/2007 assessed as minimal inhibitory concentration required for complete inhibition of mycobacterial growth incubated for 21 days; conditions: 9449/2007, 504 h, time 21 day
[11] = tested on: Mycobacterium tuberculosis; assay: Antimycobacterial activity against multi drug-resistant Mycobacterium tuberculosis 7357/1998 assessed as minimal inhibitory concentration required for complete inhibition of mycobacterial growth incubated for 14 days; conditions: 7357/1998, 336 h, time 14 day
[12] = tested on: Mycobacterium tuberculosis; assay: Antimycobacterial activity against multi drug-resistant Mycobacterium tuberculosis 7357/1998 assessed as minimal inhibitory concentration required for complete inhibition of mycobacterial growth incubated for 21 days; conditions: 7357/1998, 504 h, time 21 day
[13] = tested on: Mycobacterium tuberculosis; assay: Antimycobacterial activity against multi drug-resistant Mycobacterium tuberculosis 8666/2010 assessed as minimal inhibitory concentration required for complete inhibition of mycobacterial growth incubated for 14 days; conditions: 8666/2010, 336 h, time 14 day
[14] = tested on: Mycobacterium tuberculosis; assay: Antimycobacterial activity against multi drug-resistant Mycobacterium tuberculosis 8666/2010 assessed as minimal inhibitory concentration required for complete inhibition of mycobacterial growth incubated for 21 days; conditions: 8666/2010, 504 h, time 21 day
[15] = tested on: Mycobacterium tuberculosis; assay: Antimycobacterial activity against Mycobacterium tuberculosis H37Ra overexpressing InhA assessed as bacterial growth inhibition incubated for 28 days by drop dilution method; conditions: 672 h, time 28 day
[16] = tested on: Mycobacterium tuberculosis; assay: Antimycobacterial activity against Mycobacterium tuberculosis H37Ra overexpressing KatGs-meg assessed as bacterial growth inhibition incubated for 28 days by drop dilution method; conditions: 672 h, time 28 day

Row | Compound | MIC [1] [µM] | MIC [2] [µM] | MIC [3] [µM] | MIC [4] [µM] | MIC [5] [µM] | MIC [6] [µM] | MIC [7] [µM] | MIC [8] [µM] | MIC [9] [µM] | MIC [10] [µM] | MIC [11] [µM] | MIC [12] [µM] | MIC [13] [µM] | MIC [14] [µM] | MIC [15] [µM] | MIC [16] [µM]
1 | C/C(=N\NC(=O)c1ccncc1)C(=O)Nc1ccc(I)cc1 | 16 (≈ 6.53 µg/mL) | 32 (≈ 13.1 µg/mL) | 16 (≈ 6.53 µg/mL) | 32 (≈ 13.1 µg/mL) | 8 (≈ 3.27 µg/mL) | 16 (≈ 6.53 µg/mL) | 16 (≈ 6.53 µg/mL) | 16 (≈ 6.53 µg/mL) | 8 (≈ 3.27 µg/mL) | 16 (≈ 6.53 µg/mL) | 16 (≈ 6.53 µg/mL) | 32 (≈ 13.1 µg/mL) | 8 (≈ 3.27 µg/mL) | 16 (≈ 6.53 µg/mL) | 12.5 (≈ 5.1 µg/mL) | 0.25 (≈ 0.102 µg/mL)
2 | C/C(=N\NC(=O)c1ccncc1)C(=O)Nc1cccc(Cl)c1 | 32 (≈ 10.1 µg/mL) | 32 (≈ 10.1 µg/mL) | 32 (≈ 10.1 µg/mL) | 32 (≈ 10.1 µg/mL) | 32 (≈ 10.1 µg/mL) | 64 (≈ 20.3 µg/mL) | 64 (≈ 20.3 µg/mL) | 64 (≈ 20.3 µg/mL) | 32 (≈ 10.1 µg/mL) | 64 (≈ 20.3 µg/mL) | 32 (≈ 10.1 µg/mL) | 32 (≈ 10.1 µg/mL) | 16 (≈ 5.07 µg/mL) | 32 (≈ 10.1 µg/mL) |  | 
3 | C/C(=N\NC(=O)c1ccncc1)C(=O)Nc1ccc(F)cc1 | 64 (≈ 19.2 µg/mL) | 64 (≈ 19.2 µg/mL) | 32 (≈ 9.61 µg/mL) | 64 (≈ 19.2 µg/mL) | 64 (≈ 19.2 µg/mL) | 64 (≈ 19.2 µg/mL) | 64 (≈ 19.2 µg/mL) | 125 (≈ 37.5 µg/mL) | 32 (≈ 9.61 µg/mL) | 32 (≈ 9.61 µg/mL) | 64 (≈ 19.2 µg/mL) | 64 (≈ 19.2 µg/mL) | 32 (≈ 9.61 µg/mL) | 32 (≈ 9.61 µg/mL) |  | 
4 | C/C(=N\NC(=O)c1ccncc1)C(=O)Nc1ccc(Cl)c(Cl)c1 | 64 (≈ 22.5 µg/mL) | 125 (≈ 43.9 µg/mL) | 64 (≈ 22.5 µg/mL) | 125 (≈ 43.9 µg/mL) | 32 (≈ 11.2 µg/mL) | 64 (≈ 22.5 µg/mL) | 64 (≈ 22.5 µg/mL) | 125 (≈ 43.9 µg/mL) | 32 (≈ 11.2 µg/mL) | 32 (≈ 11.2 µg/mL) | 64 (≈ 22.5 µg/mL) | 125 (≈ 43.9 µg/mL) | 32 (≈ 11.2 µg/mL) | 32 (≈ 11.2 µg/mL) |  | 
5 | C/C(=N\NC(=O)c1ccncc1)C(=O)Nc1ccc(C(F)(F)F)cc1 | 32 (≈ 11.2 µg/mL) | 64 (≈ 22.4 µg/mL) | 32 (≈ 11.2 µg/mL) | 64 (≈ 22.4 µg/mL) | 64 (≈ 22.4 µg/mL) | 64 (≈ 22.4 µg/mL) | 32 (≈ 11.2 µg/mL) | 64 (≈ 22.4 µg/mL) | 32 (≈ 11.2 µg/mL) | 32 (≈ 11.2 µg/mL) | 32 (≈ 11.2 µg/mL) | 64 (≈ 22.4 µg/mL) | 32 (≈ 11.2 µg/mL) | 32 (≈ 11.2 µg/mL) |  | 
6 | C/C(=N\NC(=O)c1ccncc1)C(=O)Nc1ccc(Cl)cc1 | 32 (≈ 10.1 µg/mL) | 32 (≈ 10.1 µg/mL) | 32 (≈ 10.1 µg/mL) | 32 (≈ 10.1 µg/mL) | 32 (≈ 10.1 µg/mL) | 64 (≈ 20.3 µg/mL) | 32 (≈ 10.1 µg/mL) | 64 (≈ 20.3 µg/mL) | 32 (≈ 10.1 µg/mL) | 64 (≈ 20.3 µg/mL) | 32 (≈ 10.1 µg/mL) | 32 (≈ 10.1 µg/mL) | 8 (≈ 2.53 µg/mL) | 16 (≈ 5.07 µg/mL) |  | 
7 | C/C(=N\NC(=O)c1ccncc1)C(=O)Nc1ccc(Br)cc1 | 32 (≈ 11.6 µg/mL) | 32 (≈ 11.6 µg/mL) | 32 (≈ 11.6 µg/mL) | 32 (≈ 11.6 µg/mL) | 32 (≈ 11.6 µg/mL) | 64 (≈ 23.1 µg/mL) | 32 (≈ 11.6 µg/mL) | 64 (≈ 23.1 µg/mL) | 32 (≈ 11.6 µg/mL) | 64 (≈ 23.1 µg/mL) | 32 (≈ 11.6 µg/mL) | 32 (≈ 11.6 µg/mL) | 32 (≈ 11.6 µg/mL) | 32 (≈ 11.6 µg/mL) |  | 
8 | C/C(=N\NC(=O)c1ccncc1)C(=O)Nc1ccc(OC(F)(F)F)cc1 | 64 (≈ 23.4 µg/mL) | 64 (≈ 23.4 µg/mL) | 32 (≈ 11.7 µg/mL) | 64 (≈ 23.4 µg/mL) | 64 (≈ 23.4 µg/mL) | 64 (≈ 23.4 µg/mL) | 32 (≈ 11.7 µg/mL) | 32 (≈ 11.7 µg/mL) | 32 (≈ 11.7 µg/mL) | 64 (≈ 23.4 µg/mL) | 32 (≈ 11.7 µg/mL) | 64 (≈ 23.4 µg/mL) | 32 (≈ 11.7 µg/mL) | 64 (≈ 23.4 µg/mL) | 6 (≈ 2.2 µg/mL) | 0.15 (≈ 0.0549 µg/mL)
